Columns and labels:
σ1-receptor = target: T1, σ1-receptor (Cavia porcellus, UniProt Q60492); assay: Sigma-1 receptor radioligand binding, [3H](+)pentazocine (Version A / Version B); set-up: species or system guinea pig; settings: for % Binding σ1 10^−6 M: compound 10^−6 M; for % Binding σ1 10^−6 M / inhibition at 0.1 µM / inhibition at 0.01 µM: guinea pig brain membranes; for Ki: value in parentheses below the % binding, guinea pig brain; for inhibition at 0.1 µM: compound 10^−7 M; for inhibition at 0.01 µM: compound 10^−8 M
T1 construct: guinea pig brains were homogenized in 10 vols; (w/v) of Tris-HCl 50 mM 0.32 M sucrose; from tissue; host or cells: guinea pig brain membranes
Method: Brain membrane preparation and binding assays for the σ1-receptor were performed as described (DeHaven-Hudkins et al., 1992) with some modifications. In brief, guinea pig brains were homogenized in 10 vols. (w/v) of Tris-HCl 50 mM 0.32 M sucrose, pH 7.4, with a Kinematica Polytron PT 3000 at 15000 r.p.m. for 30 s. The homogenate was centrifuged at 1000 g for 10 min at 4° C. and the supernatants collected and centrifuged again at 48000 g for 15 min at 4° C. The pellet was resuspended in 10 volumes of Tris-HCl buffer (50 mM, pH 7.4), incubated at 37° C. for 30 min, and centrifuged at 48000 g for 20 min at 4° C. Following this, the pellet was resuspended in fresh Tris-HCl buffer (50 mM, pH 7.4) and stored on ice until use.
Each assay tube contained 10 μL of [^3H](+)pentazocine (final concentration of 0.5 nM), 900 μL of the tissue suspension to a final assay volume of 1 mL and a final tissue concentration of approximately 30 mg tissue net weight/mL. Non-specific binding was defined by addition of a final concentration of 1 μM haloperidol. All tubes were incubated at 37° C. for 150 min before termination of the reaction by rapid filtration over Schleicher & Schuell GF 3362 glass fibre filters [previously soaked in a solution of 0.5% polyethylenimine for at least 1 h]. Filters were then washed with four times with 4 mL of cold Tris-HCl buffer (50 mM, pH 7.4). Following addition of scintillation cocktail, the samples were allowed to equilibrate overnight. The amount of bound radioactivity was determined by liquid scintillation spectrometry using a Wallac Winspectral 1414 liquid scintillation counter. Protein concentrations were determined by the method of Lowry et al. (1951).
In brief the σ1-receptor preparation was prepared from guinea pig brain. The brains were homogenized in 5 to 6 times of volume sucrose solution (0.32M) and homogenized. The homogenate was centrifuged at 2900 rpm, 4° C., 10 min). the supernatant was centrifuged again (23500×g, 4° C., 20 min). The pellet was resuspended in Tris-buffer, incubated for 30 min at room temperature and centrifuged f (23500×g, 4° C., 20 min). The pellet was resuspended in cold TRIS-buffer and homogenized. Then the protein content was measured (approx. 1.5 mg/mL) and the homogenate frozen at −80° C. for later use.
The radioligand used was [^3H]-(+)-Pentazocin in TRIS-buffer. In a volume of 200 μL 50 μL TRIS-buffer, 50 μL compound solution of varying concentration, 50 μL radioligand-solution (8 nM; resulting in 2 nM in the assay) and finally 50 μL of receptor preparation (approx. 1.5 mg/mL) were given into a well of a microplate equipped with a filter. The plate was closed and stirred for 2.5 h at 37° C. and 500 rpm. Following that the solvents were removed by a harvester through the filter. After rinsing with H2O the filter was measured in a scintillation counter ([^3H]-protocol).

σ2-receptor = assay: Sigma-2 receptor radioligand binding, [3H]-DTG (Version A / Version B); set-up: species or system mice (Version A, σ1 knockout brain) / rat (Version B, liver); settings: compound 10^−6 M
Method: Binding studies for σ2-receptor were performed as described (Radesca et al., 1991) with some modifications. In brief, brains from sigma receptor type I (σ1) knockout mice were homogenized in a volume of 10 mL/g tissue net weight of ice-cold 10 mM Tris-HCl, pH 7.4, containing 320 mM sucrose (Tris-sucrose buffer) with a Potter-Elvehjem homogenizer (10 strokes at 500 r.p.m.) The homogenates were then centrifuged at 1000 g for 10 min at 4° C., and the supernatants were saved. The pellets were resuspended by vortexing in 2 mL/g ice-cold Tris-sucrose buffer and centrifuged again at 1000 g for 10 min. The combined 1000 g supernatants were centrifuged at 31000 g for 15 min at 4° C. The pellets were resuspended by vortexing in 3 mL/g 10 mM Tris-HCl, pH 7.4, and the suspension was kept at 25° C. for 15 min. Following centrifugation at 31000 g for 15 min, the pellets were resuspended by gentle Potter Elvehjem homogenization to a volume of 1.53 mL/g in 10 mM Tris-HCl pH 7.4.
The assay tubes contained 10 μL of [^3H]-DTG (final concentration of 3 nM), 400 μL of the tissue suspension (5.3 mL/g in 50 mM Tris-HCl, pH 8.0) to a final assay volume of 0.5 mL. Non-specific binding was defined by addition of a final concentration of 1 μM haloperidol. All tubes were incubated at 25° C. for 120 min before termination of the reaction by rapid filtration over Schleicher & Schuell GF 3362 glass fibre filters [previously soaked in a solution of 0.5% polyethylenimine for at least 1 h]. Filters were washed with three times with 5 mL volumes of cold Tris-HCl buffer (10 mM, pH 8.0). Following addition of scintillation cocktail samples were allowed to equilibrate overnight. The amount of bound radioactivity was determined by liquid scintillation spectrometry using a Wallac Winspectral 1414 liquid scintillation counter. Protein concentrations were determined by the method of Lowry et al. (1951).
In brief the σ2-Receptor preparation was prepared from rat liver. The livers were homogenized in 5 to 6 times of volume sucrose solution (0.32M) and homogenized. The homogenate was centrifuged at 2900 rpm, 4° C., 10 min). the supernatant was centrifuged again (31000×g, 4° C., 20 min). The pellet was resuspended in TRIS-buffer, incubated for 30 min at room temperature while stirring and centrifuged f (31000×g, 4° C., 20 min). The pellet was resuspended in cold TRIS-buffer pH 8 and homogenized. Then the protein content was measured (approx. 2 mg/mL) and the homogenate frozen at −80° C. for later use.
The radioligand used was [^3H]-Ditolylguanidin in TRIS-buffer pH 8. The σ1-receptor binding sites were masked through (+)-Pentazocin-solution in TRIS-Puffer pH 8.
In a volume of 200 μL 50 μL compound solution of varying concentration, 50 μL (+Pentazocin-solution (2 μM; resulting in 500 nM in the assay), 50 μL radioligand-solution (12 nM; resulting in 3 nM in the assay) and finally 50 μL of receptor preparation (approx. 2 mg/mL) were given into a well of a microplate equipped with a filter. The plate was closed and stirred for 2 h at room temperature and 500 rpm. Following that the solvents were removed by a harvester through the filter. After rinsing with H2O the filter was measured in a scintillation counter ([^3H]-protocol).

T1 sequence (Q60492 whole entry): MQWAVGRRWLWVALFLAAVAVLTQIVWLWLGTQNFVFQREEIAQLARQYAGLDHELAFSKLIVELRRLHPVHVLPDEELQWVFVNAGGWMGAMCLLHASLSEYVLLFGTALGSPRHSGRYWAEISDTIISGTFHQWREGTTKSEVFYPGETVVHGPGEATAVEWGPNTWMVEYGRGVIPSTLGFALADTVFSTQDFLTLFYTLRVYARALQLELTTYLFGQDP

| SMILES | % Binding σ1 10^−6 M (σ1-receptor) | inhibition at 0.1 µM (σ1-receptor) | inhibition at 0.01 µM (σ1-receptor) | % Binding σ2 10^−6 M (σ2-receptor) | further results |
| --- | --- | --- | --- | --- | --- |
| COC1Cc2ccccc2C2(CCCNC2)O1 (centres unmarked) |  |  |  |  | melting point: 54 to 58 °C |
| COC1OC2(CC[N+]3(CCCC3)CC2)c2ccccc21.[Br-] (centres unmarked) |  |  |  |  | melting point: 124 °C |
| COC1Cc2ccccc2C2(CCN(Cc3ccccc3)C2)O1 (mixture of isomers) [Example 18, cis/trans-1′-Benzyl-3-methoxy-3,4-dihydrospiro[[2]benzopyran-1,3′-pyrrolidin]] | 96.2% |  |  |  | Ki (σ1-receptor): 70 nM |
| COC1Cc2ccccc2C2(CCN(CCc3ccccc3)C2)O1 (mixture of isomers) [Example 20, cis/trans-3-Methoxy-1′-(2-phenylethyl)-3,4-dihydrospiro[[2]benzopyran-1,3′-pyrrolidin]] |  | 89.5% | 32% |  |  |
| COC1Cc2ccccc2C2(CCN(CCCCc3ccccc3)C2)O1 (mixture of isomers) [Example 21, cis/trans-3-Methoxy-1′-(4-phenylbutyl)-3,4-dihydrospiro[[2]benzopyran-1,3′-pyrrolidin]] |  | 67% | 32% |  |  |
| CCCCCCCCN1CCC2(C1)OC(OC)Cc1ccccc12 (mixture of isomers) [Example 23, cis/trans-3-Methoxy-1′-octyl-3,4-dihydrospiro[[2]benzopyran-1,3′-pyrrolidin]] |  | 70.4% | 0.8% |  |  |
| COC1OC2(CCN(CCc3ccccc3)C2)c2ccccc21 (mixture of isomers) [Example 27, cis/trans-3-Methoxy-1′-(2-Phenylethyl)-3H-spiro[[2]benzofuran-1,3′-pyrrolidin]] |  | 92.2% | 40.4% |  |  |
| COC1OC2(CCN(CCCCc3ccccc3)C2)c2ccccc21 (mixture of isomers) [Example 28, cis/trans-3-Methoxy-1′-(4-Phenylbutyl)-3H-spiro[[2]benzofuran-1,3′-pyrrolidin]] |  | 80.4% | 27.4% |  |  |
| CCCCN1CCC2(C1)OC(OC)c1ccccc12 (mixture of isomers) [Example 29, cis/trans-1′-Butyl-3-methoxy-3H-spiro[[2]benzofuran-1,3′-pyrrolidin]] |  | 68.9% | 45.6% |  |  |
| CCCCCCCCN1CCC2(C1)OC(OC)c1ccccc12 (mixture of isomers) [Example 30, cis/trans-3-Methoxy-1′-octyl-3H-spiro[[2]benzofuran-1,3′-pyrrolidin]] |  | 91.5% | 41.8% |  |  |
| CCCCN1CCC[C@]2(C1)O[C@H](OC)Cc1ccccc12 (racemic) [Example 11, trans-1′-Butyl-3-methoxy-3,4-dihydrospiro[[2]benzopyran-1,3′-piperidin]] | 49^ % |  |  | 18.8% |  |
| CO[C@@H]1Cc2ccccc2[C@]2(CCCN(Cc3ccccc3)C2)O1 (relative stereo) [Example 2, trans-1′-Benzyl-3-methoxy-3,4-dihydrospiro[[2]benzopyran-1,3′-piperidin]] | 12.9% |  |  | 27.8% |  |
| CO[C@@H]1Cc2ccccc2[C@@]2(CCCN(CCCc3ccccc3)C2)O1 (relative stereo) [Example 6, cis-3-Methoxy-1′-(3-phenylpropyl)-3,4-dihydrospiro[[2]benzopyran-1,3′-piperidin]] | 38.8% |  |  | 32.2% |  |
| CO[C@@H]1Cc2ccccc2[C@]2(CCCN(CCCc3ccccc3)C2)O1 (relative stereo) [Example 7, trans-3-Methoxy-1′-(3-phenylpropyl)-3,4 dihydrospiro[[2]benzopyran-1,3′-piperidin]] | 14^ % |  |  | 54.3% |  |
| CCCCN1CCC[C@@]2(C1)O[C@H](OC)Cc1ccccc12 (relative stereo) [Example 10, cis-1′-Butyl-3-methoxy-3,4-dihydrospiro[[2]benzopyran-1,3′-piperidin]] | 56^ % |  |  | 7.6% |  |
| CCCCCCCCN1CCC[C@]2(C1)O[C@H](OC)Cc1ccccc12 (relative stereo) [Example 15, trans-3-Methoxy-1′-octyl-3,4-dihydrospiro[[2]benzopyran-1,3′-piperidin]] | 27.6% |  |  | 56.3% |  |
| CO[C@@H]1Cc2ccccc2[C@@]2(CCCN(Cc3ccccc3)C2)O1 [Example 1, cis-1′-Benzyl-3-methoxy-3,4-dihydrospiro[[2]benzopyran-1,3′-piperidin]] |  | 34% |  |  |  |
| CCCCCCCCN1CCC[C@@]2(C1)O[C@H](OC)Cc1ccccc12 [Example 14, cis-3-Methoxy-1′-octyl-3,4-dihydrospiro[[2]bonzopyran-1,3′-piperidin]] | 46.3% |  |  | 45.4% |  |
| CCCCN1CCC2(CC1)OC(OC)Cc1ccccc12 (centres unmarked) [Example 36] | 100.8% |  |  | 39.7% | Ki (σ1-receptor): 2.3 nM |
| CCCCCCCCN1CCC2(CC1)OC(OC)Cc1ccccc12 (centres unmarked) [Example 37] | 103.9% |  |  | 72.6% |  |

Source: patent US20090209568A1, “Spiro [Benzopyran] or Spiro [Benzofuran] Derivatives Which Inhibit the Sigma Receptor” (priority 2006, published 2009)
